Laboratory results as given in patent publication US10081632B2, “Substituted tetrahydropyrido[3′,2′:4,5]pyrrolo[1,2-α]pyrazine-2-carboxamides as RSK inhibitors” (Phoenix Molecular Designs, priority 2016, dated 2018).
Entries after “also recorded” stand apart in the source; their conditions may differ. Where a name gives a salt, the structure may show the parent alone. Read-outs that look alike come from different tables or passages of the source.

Assays:
[1] = Solubility assessment, 20 mg/ml solution; assay type: physicochemical; conditions: hydrochloride salt
How it was run: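 Compounds from 100 mM DMSO stocks diluted to 20 mg/ml in DMEM with FBS and penicillin/streptomycin, vortexed and checked visually for precipitate. One compound instead diluted to 20 mg/ml in phosphate-buffered saline, solution pH 2.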

T47D cells [2] = experiment: Monolayer growth inhibition, Alamar blue assay; assay type: cell-based, Human; conditions: Homo sapiens; T47D (ER/PR), 5 days, single dose on day 1
Text: (§1) In all instances a single dose was given on day 1 of the experiment.

SUM149-PTXR cells = experiment: Monolayer growth inhibition, Alamar blue assay; assay type: cell-based, Human; conditions: Homo sapiens; SUM149-PTXR (TNBC, BRCA Mutant), 5 days, single dose on day 1
Text: as §1

CD34+ cells = experiment: Colony forming unit hematopoietic stem cell assay; assay type: cell-based, human
Procedure: The hematopoietic colony forming cell assay was conducted based on a protocol outlined by StemCell Technologies. […] Following the addition of CD34^+ cells isolated from human cord blood or peripheral blood (StemCell Technologies) at a final concentration of 5×10^2 cells per dish, the tubes were vortexed and allowed to stand for 5 minutes at room temperature. Next, the MethoCult mixtures were dispensed into 35 mm dishes (Corning Incorporated) through blunt end needles (StemCell Technologies) and 5 ml syringes (BD Biosciences) at a volume of 1.1 ml per dish. The medium was evenly distributed across the surface of each dish by gentle tilting and rotation. The dishes were then placed in a 100 mm culture dish (Grenier Bio-One) containing additional 35 mm dishes with sterile water to maintain humidity. […] The number of myeloid and erythroid derived colonies in both the treated and control dishes were counted and compared.

[3] = test system: P-YB-1 in MDA-MB-231 xenografts; experiment: Pharmacodynamics, P-YB-1 signalling in MDA-MB-231 xenograft tumors (immunoblotting); conditions: 100 mg/kg BID PO for three days
Procedure: Following desired experimental conditions, breast cancer cell lines grown and treated in 6 well plates or 100 mm culture dishes (Grenier Bio-One) were placed on ice and the supernatant from each well was removed and the cells were washed in cold PBS. Following removal of PBS, cells were exposed to radioimmunoprecipitation assay (RIPA) buffer (50 mM Tris-HCl (pH 8), 150 mM NaCl, 1% NP-40, 0.5% sodium deoxycholate, 0.1% SDS; Fisher Scientific) supplemented with 1% phosphatase inhibitor (Fisher Scientific) and 1% protease inhibitor (Fisher Scientific) for 10 minutes. Samples were transferred to eppendorf tubes, vortexed and then centrifuged at 14 000 rpm for 10 minutes. Supernatants were collected as whole cell lysates. For mouse tumour tissues, each sample was place in a 35 mm culture dish with complete RIPA lysis buffer. […]
To begin, the protein content of the lysates was measured using the Bicinchoninic Acid (BCA) Protein Assay Kit (Pierce), which included a protein standard curve generated with bovine serum albumin. […] For certain immunoblots, bands of proteins of interest were scanned and band intensity ratios were determined by densitometric analysis (ImageJ). […] To assess whether cells are actively undergoing cell death, the activity of poly ADP ribose polymerase (PARP) (1:1000 CST) was also measured using the immunoblotting method.
Cell signalling was evaluated by immunoblotting. […]

MDA-MB-231 cells = experiment: Soft agar growth inhibition assay; assay type: cell-based; conditions: Homo sapiens
PC3 cells = experiment: Monolayer growth inhibition, Alamar blue assay; assay type: cell-based; conditions: Homo sapiens, PC-3; PC3 (Prostate), 5 days, single dose on day 1
Text: as §1

HCC1143 cells = experiment: Monolayer growth inhibition, Alamar blue assay; assay type: cell-based; conditions: Homo sapiens; HCC1143 (TNBC), 5 days, single dose on day 1
Text: as §1

JIMT-1 cells [4] = experiment: Monolayer growth inhibition, Alamar blue assay; assay type: cell-based; conditions: Homo sapiens; JIMT-1 (HER2), 5 days, single dose on day 1
Text: as §1

MDA-MB-435 cells = experiment: Monolayer growth inhibition, Alamar blue assay; assay type: cell-based; conditions: Homo sapiens; MDA-MB-435 (Melanoma), 5 days, single dose on day 1
Text: as §1

SUM149 cells = experiment: Monolayer growth inhibition, Alamar blue assay; assay type: cell-based; conditions: Homo sapiens; SUM149 (TNBC, BRCA Mutant), 5 days, single dose on day 1
Text: as §1

HCC1937 cells [5] = experiment: Monolayer growth inhibition, Alamar blue assay; assay type: cell-based; conditions: Homo sapiens; HCC1937 (TNBC, BRCA Mutant), 5 days, single dose on day 1
Text: as §1

T47D cells [6] = experiment: Monolayer growth inhibition, crystal violet assay; assay type: cell-based; conditions: Homo sapiens; T47D (ER/PR), 5 days, single dose on day 1
Text: (§2) In all instances a single dose was given on day 1 of the experiment. […] Complete (100%) growth suppression was achievable with several of the compounds in multiple different cell lines.

JIMT-1 cells [7] = experiment: Monolayer growth inhibition, crystal violet assay; assay type: cell-based; conditions: Homo sapiens; JIMT-1 (HER2), 5 days, single dose on day 1
Text: as §2

MDA-MB-468 cells = experiment: Monolayer growth inhibition, crystal violet assay; assay type: cell-based; conditions: Homo sapiens; MDA-MB-468 (TNBC), 5 days, single dose on day 1
Text: as §2

HCC1937 cells [8] = experiment: Monolayer growth inhibition, crystal violet assay; assay type: cell-based; conditions: Homo sapiens; HCC1937 (TNBC, BRCA Mutant), 5 days, single dose on day 1
Text: as §2

## C[C@@H]1CNC(=O)c2cc3ccc(C(=O)Nc4cnn(Cc5ccc(N)cc5)c4)nc3n21 [Compound 25, (R)—N-(1-(4-aminobenzyl)-1H-pyrazol-4-yl)-9-methyl-6-oxo-6,7,8,9-tetrahydropyrido[3′,2′:4,5]pyrrolo[1,2-a]pyrazine-2-carboxamide hydrochloride salt]
[1]; 100 mM in DMSO diluted in DMEM growth media to 20 mg/ml
  Solubility, 20 mg/ml Solution: Soluble; also recorded: superior solubility
[1]; DMSO stock diluted in DMEM, pH test strips
  pH of 20 mg/ml solution: 2
T47D cells [2]
  IC50: 8.9 ± 0.8 µM
SUM149-PTXR cells
  IC50: 5.2 ± 4.2 µM
CD34+ cells; Homo sapiens, Hematopoietic stem cell, CD34+ cells from peripheral blood, read-out: CD34+ (PB) IC50
  IC50: > 20 µM
CD34+ cells; ratio IC50 against CD34+ cells and MDA-MB-231 cells (SA), hydrochloride salt
  Therapeutic Window: >100X
[3]
  Tumors with reduced cell signaling through loss of P-YB-1: 3/3
MDA-MB-231 cells; MDA-MB-231, growth in soft agar (SA), read-out: MDA-MB-231 IC50 (SA)
  IC50: 200 nM
MDA-MB-231 cells; MDA-MB-231 (TNBC), 14-22 days, read-out: IC50 Values - Soft Agar (14-22 Days)
  IC50: 200 ± 100 nM
PC3 cells
  IC50: 8.5 ± 0.8 µM
HCC1143 cells
  IC50: 5.1 ± 0.3 µM
JIMT-1 cells [4]
  IC50: 19.9 ± 6.5 µM
MDA-MB-435 cells
  IC50: 900 ± 100 nM
SUM149 cells
  IC50: 10.4 ± 3.5 µM
HCC1937 cells [5]
  IC50: 13.7 ± 3.8 µM
T47D cells [6]
  IC50: 3.1 ± 0.1 µM
JIMT-1 cells [7]
  IC50: 15.2 ± 2.6 µM
MDA-MB-468 cells
  IC50: 2000 ± 400 nM
HCC1937 cells [8]
  IC50: 8.4 ± 1.9 µM
